Results as given in US9247746B2, “Fungicidal substituted 1-{2-cyclyloxy-2-[2-halo-4-(4-halogen-phenoxy)-phenyl]-ethyl}-1H-[1,2,4]triazole compounds” (BASF SE, priority 2011, dated 2016).

What was measured:
[1] = test system: Septoria tritici; experiment: Preventative control of leaf blotch on wheat (Septtr P7), green house; format: in vivo; conditions: inoculated 7 days after spraying, untreated control 90
Experimental: The spray solutions were prepared in several steps: The stock solution were prepared: a mixture of acetone and/or dimethylsulfoxide and the wetting agent/emulsifier Wettol, which is based on ethoxylated alkylphenoles, in a relation (volume) solvent-emulsifier of 99 to 1 was added to 25 mg of the compound to give a total of 5 ml. Water was then added to total volume of 100 ml. This stock solution was diluted with the described solvent-emulsifier-water mixture to the given concentration. G1. Preventative Control of Brown Rust on Wheat Caused by Puccinia recondita (Puccrt P1) G3. Preventative Control of Leaf Blotch on Wheat Caused by Septoria tritici (Septtr P7) Leaves of pot-grown wheat seedling were sprayed to run-off with an aqueous suspension of the active compound or their mixture, prepared as described. The plants were allowed to air-dry. Seven days later the plants were inoculated with an aqueous spore suspension of Septoria tritici. Then the trial plants were immediately transferred to a humid chamber at 18-22° C. and a relative humidity close to 100%. After 4 days the plants were transferred to a chamber with 18-22° C. and a relative humidity close to 70%. After 4 weeks the extent of fungal attack on the leaves was visually assessed as % diseased leaf area.

[2] = test system: Septoria tritici; experiment: Microtest: activity against leaf blotch on wheat (Septtr); format: cell-based
Experimental: The active compounds were formulated separately as a stock solution having a concentration of 10000 ppm in dimethyl sulfoxide. M2. Activity Against Leaf Blotch on Wheat Caused by Septoria tritici(Septtr) The stock solutions were mixed according to the ratio, pipetted onto a micro titer plate (MTP) and diluted with water to the stated concentrations. A spore suspension of Septoria tritici in an aqueous biomalt or yeast-bactopeptone-glycerine solution was then added. The plates were placed in a water vapor-saturated chamber at a temperature of 18° C. Using an absorption photometer, the MTPs were measured at 405 nm 7 days after the inoculation.

[3] = test system: Phakopsora pachyrhizi; experiment: Protective control of soy bean rust on soy beans (Phakpa P2), green house; format: in vivo; conditions: inoculated 2 days after spraying, untreated control 90
Experimental: The spray solutions were prepared in several steps:
The stock solution were prepared: a mixture of acetone and/or dimethylsulfoxide and the wetting agent/emulsifier Wettol, which is based on ethoxylated alkylphenoles, in a relation (volume) solvent-emulsifier of 99 to 1 was added to 25 mg of the compound to give a total of 5 ml. Water was then added to total volume of 100 ml. This stock solution was diluted with the described solvent-emulsifier-water mixture to the given concentration. G1. Preventative Control of Brown Rust on Wheat Caused by Puccinia recondita (Puccrt P1)
G4. Protective Control of Soy Bean Rust on Soy Beans Caused by Phakopsora pachyrhizi (Phakpa P2)
Leaves of pot-grown soy bean seedlings were sprayed to run-off with an aqueous suspension, containing the concentration of active ingredient or their mixture as described below. The plants were allowed to air-dry. The trial plants were cultivated for 2 days in a greenhouse chamber at 23-27° C. and a relative humidity between 60 and 80%. Then the plants were inoculated with spores of Phakopsora pachyrhizi. To ensure the success the artificial inoculation, the plants were transferred to a humid chamber with a relative humidity of about 95% and 20 to 24° C. for 24 h. […] The extent of fungal attack on the leaves was visually assessed as % diseased leaf area.

SMILES	Disease (%) at 16 ppm Septtr P7 [1]	Growth (%) at 0.00012 ppm Septtr [2]	Disease (%) at 63 ppm Phakpa P2 [3]
COC(C)(Cn1cncn1)c1ccc(Oc2ccc(Cl)cc2)cc1Cl (stereo not shown)	80%	63%	
CCC(Cn1cncn1)(OC)c1ccc(Oc2ccc(Cl)cc2)cc1Cl (stereo not shown)			60%
CC(Cn1cncn1)(OCc1ccccc1)c1ccc(Oc2ccc(Cl)cc2)cc1Cl (stereo not shown) [I-1, 1-[2-benzyloxy-2-[2-chloro-4-(4-chlorophenoxy)phenyl]propyl]-1,2,4-triazole]		23%	
